Gewichtszunahme data for 5 molecules are collected here from patent EP0216290A2, “Use of thienyl amines as agents with an output-accelerating effect; thienyl amine” (BAYER AG, priority 1985, dated 1987).

The subject of this assay is Weibliche Laborratten. Description: Rat feeding test (Ratten-Fütterungsversuch, Beispiel A). As to conditions: 25 ppm in feed ad lib, 13-day test, 12 female rats per group; relative to control without active substance = 100. The format is in vivo, Laborratten vom Typ SPF Wistar. From the text: Weibliche Laborratten 90-110 g schwer vom Typ SPF Wistar (Züchtung Hagemann) werden ad lib mit Standard Rattenfutter, das mit der gewünschten Menge Wirkstoff versetzt ist, gefüttert. Jeder Versuchsansatz wird mit Futter der identischen Charge durchgeführt, so daß Unterschiede in der Zusammensetzung des Futters die Vergleichbarkeit der Ergebnisse nicht beeinträchtigen können.
Die Ratten erhalten Wasser ad lib.
Jeweils 12 Ratten bilden eine Versuchsgruppe und werden mit Futter, das mit der gewünschten Menge Wirkstoff versetzt ist, gefüttert. Eine Kontrollgruppe erhält Futter ohne Wirkstoff. Das durchschnittliche Körpergewicht sowie die Streuung in den Körpergewichten der Ratten ist in jeder Versuchsgruppe gleich, so daß eine Vergleichbarkeit der Versuchsgruppen untereinander gewährleistet ist.
Während des 13-tägigen Versuchs werden Gewichtszunahme und Futterverbrauch bestimmt.
Es werden die aus der Tabelle ersichtlichen Ergebnisse erhalten: […]

Regarding `CCOC(=O)c1c(NC(=O)OC)sc(C)c1CC` [Bsp. 1, 2-Aminomethoxycarbonyl-3-carbethoxy-4-ethyl-5-methylthiophen], the Gewichtszunahme is 119. For `CCCCCc1cc(C(=O)OCC)c(NC(=O)OC2CCCCC2)s1` [Bsp. 19] the value was 115; for `CCCCCc1cc(C(=O)OCC)c(NC(=O)Oc2ccccc2C)s1` [Bsp. 20], 109; for `COC(=O)Nc1sc2c(c1C(=O)OC)CCCC2` [Bsp. 31], 109. `CCOC(=O)c1cc(CC)sc1NC(=O)Oc1ccccc1` [Bsp. 56]: the Gewichtszunahme was 116.
